# Measurements as given in patent publication EP0357495A2, “3'Azido-3'-deoxythymidine (AZT) derivatives active against the AIDS virus” (IRE-CELLTARG S.A., priority 1988, dated 1990).
# “And” between values parts separate entries of the source, which are not always exact repeats. Identical values can stand only once.
# Legend:
# [1] = test system: virus HIV-1 (souche HTLV-IIIB); assay: anti-HIV activity in HIV-infected MT4 cells (MTT method); assay type: cell-based; conditions: for activité (compared with AZT, in words): comparison with AZT
# Description: (§1) Les produits (AZT, AZT-5′ hémisuccinyl et AZT 5′-leucyl) à différentes concentrations ont été mis en présence de cellules MT4 (4 X 10⁴ cellules par puits de microtray) infectées ou non avec 100 CCID₅₀ de virus HIV-1 (souche HTLV-IIIB). La CCID₅₀ représente la quantité de virus à rajouter pour obtenir une infection de 50 % des cellules (dose infectieuse de cellules en culture 50).
# (§2) Après cinq jours d'incubation à 37°C, le nombre de cellules vivantes a été déterminé par la méthode au MTT, basée sur la réduction par les cellules vivantes du 3′-(4, 5-diméthylthiazol-2-yl)-2,5-diphényltétrazoliumbromide, jaune, en formazan, bleu. L'activité antivirale et la cytotoxicité sont exprimées sous forme de ED₅₀ et de CD₅₀. La CD₅₀ représente la dose qui tue 50 % des cellules non infectées et la ED₅₀ représente la dose qui protège 50 % des cellules de l'infection virale.
# (§3) La même expérience que celle décrite ci-avant (exemple 9.1)) a été réalisée, mais en présence de thymidine 250 µM et de 2′déoxycytidine 500 µM. En effet l'AZT entre en compétition avec la thymidine au niveau des enzymes de phosphorylation qui vont le transformer en AZT triphosphate (AZT TP) qui est la forme active du produit. Un excès de thymidine réduit donc très fortement l'activité de l'AZT, ce qui se traduit par une ED₅₀ plus élevée. Par conséquent, si le dérivé de l'AZT doit son activité à la libération d'AZT qui à son tour est phosphorylé en AZT TP, un excès de thymidine aura également pour effet d'élever la ED₅₀ du dérivé. La thymidine étant cytotoxique à la concentration utilisée, il est nécessaire de rajouter de la 2′déoxycytidine pour empêcher cette toxicité.
# (§4) Les protocoles expérimentaux sont ceux décrits à l'exemple 9 3.1) et 9 3).
# cellules MT4 = assay: cytotoxicity on non-infected MT4 cells (MTT method); assay type: cell-based; conditions: for toxicité (compared with AZT, in words): comparison with AZT
# Description: as §1, §2
# as §3, with “En” for “La même expérience que celle décrite ci-avant (exemple 9.1)) a été réalisée, mais en présence de thymidine 250 µM et de 2′déoxycytidine 500 µM. En”
# as §4
# [2] = test system: virus HIV-1 (souche HTLV-IIIB); assay: viral antigen assay in HIV-infected human peripheral blood lymphocytes; assay type: cell-based; conditions: day 14 of culture
# Source text: Les lymphocytes ont été extraits d'un concentré plaquettaire par séparation sur gradient de Ficoll et élimination des adhérentes. Après 3 jours de stimulation par la phytohémaglutinine, ils ont été transférés dans un milieu additionné d'interleukine-2 (IL-2) est infectés par le virus HIV-1 (souche HTLV-IIIB). L'AZT et son dérivé 5′ hémisuccinate à différentes concentrations ont été rajoutés aux cellules au moment de l'infection.
# Trois jours après l'infection, le milieu a été remplacé par du milieu frais additionné d'IL-2, contenant les produits aux concentrations désirées pour la moitié des cellules, et ne contenant plus de produit pour l'autre moitié. Ensuite, le milieu des cellules a été remplacé à moitié par du milieu frais additionné d'IL-2, contenant ou non les produits aux concentrations désirées, tous les 3 à 4 jours.
# La multiplication du virus a été suivie par dosage des antigènes viraux dans les surnageants de culture (Innotest HIV-Organon Teknika).
# HIV = conditions: patients at AIDS stage, estimate; cited from earlier work
# [3] = in vivo toxicity, intraperitoneal, 5-day-old NMRI mice; design: species or system souriceaux NMRI; conditions: AZT, i.p.
# Description: L'AZT et son dérivé 5′hémisuccinyl ont été administrés par voie infra-péritonéale à de souriceaux NMRI âgés de 5 jours (100 µl/g de poids corporel). Les animaux ont été contrôlés tous les jours selon 2 critères : survie et poids pendant 25 jours.
# Les résultats sont repris au tableau 9. Les souriceaux traités n'ont pas montre de différence significative dans la prise de poids par rapport aux contrôles. Tableau 9
# [4] = test system: virus MSV Moloney sarcoma virus; assay: in vivo activity in MSV-infected NMRI mice (survival, tumour appearance); design: species or system souris NMRI
# Description: L'AZT et ses dérivés selon l'invention ont été testés in vivo chez la souris NMRI (souriceaux de 2 jours) infectée par le virus MSV Moloney sarcoma virus). La drogue est adminitrée i.p. pendant 5 jours dans un volume de 25 µl/g de poids corporel. Le virus est inoculé dans la cuisse gauche de l'animal deux heures après la première administration de drogue. Les animaux sont contrôlés tous les jours selon trois critères : survie, apparition de la tumeur et poids (toxicité) pendant 50 jours. Les résultats sont repris au tableau 7 et dans les figures 8 à 11. [formula]
# On entend par temps médian de survie le temps où la moitié des souris sont encore vivantes. [formula] Tableau 7
# [5] = test system: virus HIV-1 (souche HTLV-IIIB); assay: viral antigen expression in HIV-infected HUT-78 cells (indirect immunofluorescence, laser cytofluorescence); assay type: cell-based
# Source text: Les produits (AZT et AZT-5′ hémisuccinyl) à différentes concentrations ont été mis en présence de cellules HUT-78 infectées par le virus HIV-1 (souche HTLV-IIIB) à une multiplicité d'infection de 0.4. Tous les quatre jours, 3/4 du milieu ont été remplacés par du milieu frais. Après douze jours, l'expression des antigènes viraux a été mesurée par immunofluorescence indirecte à l'aide d'un sérum anti-HIV-I positif, et par cytofluorescence laser, tel que décrit par Pauwels et al. J. Virol. Meth. 16, 171-185 (1987).
# Des résultats sont exprimés dans le tableau 3 en ED₅₀ et en pourcentage d'effet protecteur selon la formule : [formula] TABLEAU 3
# [6] = tableau 6, MT-4, with thymidine(250 µM) + déoxy-cytidine (500 µM)
# [7] = tableau 6, MT-4, without thymidine / déoxy-cytidine
# [8] = listed as dérive 5′-valine de l'AZT
# [9] = tableau 4, MT-4, without thymidine / 2′déoxycytidine
# [10] = tableau 2, non-infected MT4 cells, 5 days at 37°C, dose that kills 50 % of cells
structure (smiles),measurement,setting,value
"Cc1cn([C@H]2C[C@H](N=[N+]=[N-])[C@@H](COC(=O)[C@@H](NC(=O)OC(C)(C)C)C(C)C)O2)c(=O)[nH]c1=O [AZT 5′tBoc valyl, 5′-O-(Boc-L-valyl)-3′-azido-3′-deoxythymidine]","activité (compared with AZT, in words)",[1],activités comparables
same,ED₅₀,[1]; [6],11.002 µM
same,SI,[1]; [6],33
same,ED₅₀,[1]; [7],0.0731 µM
same,SI,[1]; [7],5740
same,"toxicité (compared with AZT, in words)",cellules MT4,moins toxiques que l'AZT
same,CD₅₀,cellules MT4; [6],358 µM
same,CD₅₀,cellules MT4; [7],420 µM
"Cc1cn([C@H]2C[C@H](N=[N+]=[N-])[C@@H](COC(=O)[C@@H](N)C(C)C)O2)c(=O)[nH]c1=O [AZT 5′valyl, 5′-O-(L-valyl)-3′-azido-3′-deoxythymidine]","activité (compared with AZT, in words)",[1]; listed as AZT-5′valine,deux foix plus élevée que celle de l'AZT
same,"activité (compared with AZT, in words)",[1]; [8],plus actif que l'AZT
same,ED₅₀,[1]; [6],0.0987 µM
same,SI,[1]; [6],386
same,ED₅₀,[1]; [7],0.0007 µM
same,SI,[1]; [7],5083
same,"toxicité (compared with AZT, in words)",cellules MT4; listed as AZT-5′valine,comparable à celle de ce dernier
same,"toxicité (compared with AZT, in words)",cellules MT4; [8],comparable à celle de l'AZT
same,CD₅₀,cellules MT4; [6],38.16 µM
same,CD₅₀,cellules MT4; [7],3.65 µM
"Cc1cn([C@H]2C[C@H](N=[N+]=[N-])[C@@H](CO)O2)c(=O)[nH]c1=O [AZT, 3′azido-3′déoxythymidine, reference compound]",ED₅₀,[2]; durée d'administration 3 jours,0.03 µM
same,ED₅₀,[2]; durée d'administration 14 jours,0.023 µM
same,augmentation du temps de survie des patients traités,HIV,~18 mois
same,indice de sélectivité,[1]; de l'ordre de,~6000
same,ED₅₀,[1]; [9],"0,0018 µM"
same,SI,[1]; [9],2780
same,ED₅₀,[1]; [7],0.0018 µM
same,SI,[1]; [7],2780
same,Survivants au jour 25,[3]; dose 1 g/kg poids corporel (équivalent AZT 1),0%
same,Survivants au jour 25,[3]; dose 2 g/kg poids corporel (équivalent AZT 2),0%
same,% ILS,[4]; AZT 5 mg/kg/jour i.p. 5 days,26.8%
same,% ITL,[4]; AZT 5 mg/kg/jour i.p. 5 days,62.8%
same,Temps moyen d'apparition de la tumeur,[4]; AZT 5 mg/kg/jour i.p. 5 days,6.5 jours
same,Temps moyen de survie,[4]; AZT 5 mg/kg/jour i.p. 5 days,11.3 jours
same,Temps médian d'apparition de la tumeur,[4]; AZT 5 mg/kg/jour i.p. 5 days,7.3 jours
same,Temps médian de survie,[4]; AZT 5 mg/kg/jour i.p. 5 days,11.6 jours
same,% ILS,[4]; AZT 25 mg/kg/jour i.p. 5 days,74.8%
same,% ITL,[4]; AZT 25 mg/kg/jour i.p. 5 days,190%
same,Temps moyen de survie,[4]; AZT 25 mg/kg/jour i.p. 5 days,>19.8 jours
same,Temps médian d'apparition de la tumeur,[4]; AZT 25 mg/kg/jour i.p. 5 days,13 jours
same,Temps médian de survie,[4]; AZT 25 mg/kg/jour i.p. 5 days,16 jours
same,% ILS,[4]; AZT 125 mg/kg/jour i.p. 5 days,74.8%
same,% ITL,[4]; AZT 125 mg/kg/jour i.p. 5 days,137%
same,Temps moyen d'apparition de la tumeur,[4]; AZT 125 mg/kg/jour i.p. 5 days,10.2 jours
same,Temps moyen de survie,[4]; AZT 125 mg/kg/jour i.p. 5 days,>23.3 jours
same,Temps médian d'apparition de la tumeur,[4]; AZT 125 mg/kg/jour i.p. 5 days,10.6 jours
same,Temps médian de survie,[4]; AZT 125 mg/kg/jour i.p. 5 days,16 jours
same,Pourcentage d'effet protecteur,"[5]; HUT-78, day 12, concentration 0.2 µM",36%
same,Pourcentage d'effet protecteur,"[5]; HUT-78, day 12, concentration 1 µM",45%
same,Pourcentage d'effet protecteur,"[5]; HUT-78, day 12, concentration 5 µM",65%
same,ED₅₀,"[5]; HUT-78 cells, multiplicity of infection 0.4, day 12",ED₅₀ AZT = 2 µM
same,CD₅₀,cellules MT4; [10],15.8 µM and 14.2 µM
same,CD₅₀,cellules MT4; [9],5.06 µM
same,CD₅₀,cellules MT4; [7],"5,06 µM"
"CC(=O)N[C@@H](CC(=O)OC[C@H]1O[C@@H](n2cc(C)c(=O)[nH]c2=O)C[C@@H]1N=[N+]=[N-])C(=O)O [AZT-5′hémiaspartyl (isomère majeur), 5′-O-(N-acétyl-L-hemiaspartyl)-3′-azido-3′ déoxythymidine]","activité (compared with AZT, in words)",[1],activités comparables
same,indice de sélectivité (in words),[1]; comparison with the hémisuccinyl derivative,comparable à celui du dérivé hémisuccinyl
same,ED₅₀,[1]; [6],4.000 µM
same,SI,[1]; [6],19
same,ED₅₀,[1]; [7],0.0161 µM
same,SI,[1]; [7],4046
same,"toxicité (compared with AZT, in words)",cellules MT4,moins toxiques que l'AZT
same,CD₅₀,cellules MT4; [6],74.83 µM
same,CD₅₀,cellules MT4; [7],65.06 µM
"Cc1cn([C@H]2C[C@H](N=[N+]=[N-])[C@@H](COC(=O)[C@@H](N)CC(C)C)O2)c(=O)[nH]c1=O [AZT-5′leucyl, 5′O-(L-leucyl)-3′-azido-3′déoxythymidine]",ED₅₀,"[1]; tableau 2, MT4 cells infected with 100 CCID₅₀ HIV-1, 5 days at 37°C, dose that protects 50 % of cells",.005 µM
same,SI,"[1]; tableau 2, indice de sélectivité = CD₅₀ sur ED₅₀, MT4 cells",5080
same,SI dérivé/SI AZT,"[1]; tableau 2, ratio within the same experiment, MT4 cells",2.1
same,CD₅₀,cellules MT4; [10],25.4 µM
